Assay results reported in patent US12258367B2, “Glucoside derivative that acts as SGLT1 inhibitor and application thereof” (MEDSHINE DISCOVERY INC., priority 2019, dated 2025).
Marks after values point to notes of the source that are not given here.

Tests used:
Human-SGLT1 = biological target: T1, Human-SGLT1 (Homo sapiens, UniProt P13866); assay: SGLT1 glucose transport assay ([14C]-methyl α-D-glucopyranoside uptake); format: cell-based; settings: cells stably expressing Human-SGLT1, 37° C. for 2 hours
T1 sequence (P13866 1-664): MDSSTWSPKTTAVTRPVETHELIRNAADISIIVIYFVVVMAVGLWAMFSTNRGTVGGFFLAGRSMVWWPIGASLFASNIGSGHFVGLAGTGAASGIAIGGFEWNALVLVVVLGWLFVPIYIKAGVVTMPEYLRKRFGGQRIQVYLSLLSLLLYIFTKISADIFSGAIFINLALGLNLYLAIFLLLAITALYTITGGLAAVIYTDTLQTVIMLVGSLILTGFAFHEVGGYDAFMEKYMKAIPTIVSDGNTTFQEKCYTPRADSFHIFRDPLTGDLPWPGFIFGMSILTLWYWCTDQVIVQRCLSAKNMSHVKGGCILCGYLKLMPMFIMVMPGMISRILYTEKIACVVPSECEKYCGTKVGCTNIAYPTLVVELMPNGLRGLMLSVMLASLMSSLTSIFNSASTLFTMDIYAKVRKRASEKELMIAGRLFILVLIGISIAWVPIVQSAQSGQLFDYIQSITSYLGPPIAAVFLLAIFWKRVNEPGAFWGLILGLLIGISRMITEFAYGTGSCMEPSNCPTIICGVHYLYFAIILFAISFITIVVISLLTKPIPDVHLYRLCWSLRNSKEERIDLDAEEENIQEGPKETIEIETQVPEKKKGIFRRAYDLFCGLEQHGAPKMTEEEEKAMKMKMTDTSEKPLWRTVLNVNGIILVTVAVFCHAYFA
Procedure: The effect of the compounds on the glucose transport activity of the SGLT1 transporter was detected by measuring the amount of [^14C]-labeled glucose entering cells highly expressing Human-SGLT1.
The cells stably expressing Human-SGLT1 used in the assay were constructed by Shanghai WuXi AppTec. The SGLT1 cells were plated on a Cytostar-T (PerkinElmer) 96-well cell culture plate and cultured at 5% CO2, 37° C. overnight.

Human-SGLT2 = biological target: T2, Human-SGLT2 (Homo sapiens, UniProt P31639); assay: SGLT2 glucose transport assay ([14C]-methyl α-D-glucopyranoside uptake); format: cell-based; settings: cells stably expressing Human-SGLT2, 37° C. for 2 hours
T2 sequence (P31639 1-672): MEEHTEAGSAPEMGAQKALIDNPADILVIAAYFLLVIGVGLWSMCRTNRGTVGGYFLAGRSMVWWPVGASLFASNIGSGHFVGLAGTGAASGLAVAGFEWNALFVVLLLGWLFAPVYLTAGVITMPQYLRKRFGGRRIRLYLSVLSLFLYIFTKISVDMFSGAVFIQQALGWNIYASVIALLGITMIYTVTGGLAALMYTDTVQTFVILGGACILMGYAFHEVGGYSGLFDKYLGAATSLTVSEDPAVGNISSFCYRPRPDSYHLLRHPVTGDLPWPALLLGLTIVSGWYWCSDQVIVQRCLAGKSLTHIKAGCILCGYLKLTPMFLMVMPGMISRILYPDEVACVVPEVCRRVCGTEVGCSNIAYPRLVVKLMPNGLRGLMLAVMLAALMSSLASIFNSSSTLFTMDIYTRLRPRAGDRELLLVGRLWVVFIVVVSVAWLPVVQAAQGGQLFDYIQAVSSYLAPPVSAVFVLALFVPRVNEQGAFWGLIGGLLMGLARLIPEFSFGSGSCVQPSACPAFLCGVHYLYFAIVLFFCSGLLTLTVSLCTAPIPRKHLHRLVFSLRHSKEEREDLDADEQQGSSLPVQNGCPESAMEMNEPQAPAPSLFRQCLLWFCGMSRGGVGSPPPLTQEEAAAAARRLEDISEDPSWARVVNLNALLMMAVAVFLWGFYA
Procedure: The effect of the compound on the glucose transport activity of the SGLT2 transporter was detected by measuring the amount of [^14C]-labeled glucose entering cells highly expressing Human-SGLT2.
The cells stably expressing Human-SGLT2 used in the assay were constructed by Shanghai WuXi AppTec. The SGLT2 cells were plated on a 96-well cell culture plate (Greiner) and cultured at 5% CO2, 37° C. overnight.

[1] = In vivo DMPK study in rats; settings: male SD rats; for clearance / half-life / Vd: iv, 1 mg/kg intravenously; for clearance: read-out: Cl (clearance rate); for half-life: read-out: T1/2 (half-life) (converted); for Vd: read-out: VdSS (distribution volume)
Source text: Purpose of the assay: Male SD rats were used as test animals to determine the blood concentration of the compound after a single administration and evaluate the pharmacokinetic behavior.
Procedure of the assay: 4 healthy adult male SD rats were selected, 2 rats in the intravenous injection group, and 2 rats in the oral group. The test compound was mixed with an appropriate amount of vehicle (10% NMP/10% solutol/80% water) for the intravenous injection group, vortexed, and sonicated to prepare a clear solution of 0.5 mg/mL. The clear solution was filtered by a microporous membrane for use. The vehicle for the oral group was 10% NMP/10% solutol/80% water. The test compound was mixed with the vehicle, and then the mixture was vortexed and sonicated to prepare a clear solution of 1 mg/mL. Rats were administered 1 mg/kg intravenously or 10 mg/kg orally, and then whole blood was collected for a certain period. Plasma was prepared. The drug concentration was analyzed by LC-MS/MS method, and the pharmacokinetic parameters were calculated by Phoenix WinNonlin software (Pharsight, USA).

SD rats = assay: In vivo efficacy study of oral glucose tolerance in rats (OGTT); settings: 5 mg/kg single gavage, then 50% glucose 2 g/kg, vehicle control 1063.4
Procedure: After the animals were fasted for 6 hours, they were administered WXD003 or vehicle according to Table 6, and then immediately administered 50% glucose solution (2 g/kg, 4 ml/kg).
The time for sugar administration was recorded as 0 point. The blood glucose of the animals was detected at 0 minute before sugar administration, and at 15, 30, 60, 90, 120 minutes after sugar administration, respectively. A curve of glucose tolerance was drawn based on the data of time versus blood glucose, and the area under curve (AUC) was calculated.
All values were expressed as average values. Statistical analysis was evaluated using Graphpad Prism 6 one-way analysis of variance and Tukey's multiple comparison test. A p value of less than 0.05 was considered statistically significant.

C57BL/6J male mice [2] = assay: In vivo efficacy study in diabetic mouse model induced by STZ combined with high-sugar and high-fat diet; parameters: species or system C57BL/6J mice; settings: for Glycosylated hemoglobin after 6 hours of fasting / Blood glucose after 6 hours of fasting: HFHS
Source text: 7 week-old C57BL/6J male mice, purchased from Jiangsu GemPharmatech Co., Ltd.
1) After the animals adapted to the environment, all mice were divided into two groups according to body weight, fed according to the scheme in Table 8, and injected with vehicle and streptozotocin (STZ) for modeling;
2) According to the random blood glucose test results of the model group, mice with random blood glucose greater than 11 mmol/L were enrolled in the group to continue the administration assay;
3) The mice in the model group that meet the criteria for enrollment were divided into 3 groups, 5 in the normal group, and 10 in each model administration group. The mice were administered according to the administration schedule in Table 9;
4) After starting the administration, the level of change in animal weight was monitored every day, and the blood glucose and glycosylated hemoglobin of the mice in each group after 6 hours of fasting were detected after 4 weeks and 7 weeks of administration, respectively;
5) Data analysis: All values were expressed as average values. Statistical analysis was evaluated using Graphpad Prism 6 one-way analysis of variance and Tukey's multiple comparison test, and a p value of less than 0.05 was considered statistically significant.

C57BL/6J male mice [3] = assay: In vivo efficacy study in obese mouse model induced by HFHS diet; parameters: species or system C57BL/6J mice; settings: for Blood glucose after 6 hours of fasting / Blood glucose 1 hour after meal: after 3 weeks of administration, HFHS; for Blood glucose after 6 hours of fasting: HFHS + Vehicle 10.5; for Blood glucose 1 hour after meal: HFHS + Vehicle 11.5
Source text: 5 week-old C57BL/6J male mice, purchased from Jiangsu GemPharmatech Co., Ltd.
1) After the animals adapted to the environment, they were fed a HFHS diet (Research Diet, HFHS, D12451) for 20 weeks, and then mice weighing more than 40 grams were selected for weight loss assay.
2) Animals whose body weight met the standard were adapted for vehicle administration, and then all mice were divided into 5 groups according to body weight for weight loss assay. The effect of the compound in reducing the body weight of animals was detected.
3) After starting the administration, the level of change in animal weight was monitored every day, and after 3 weeks of administration, the blood glucose levels of mice in each group after 6 hours of fasting and 1 hour after meal were detected, respectively;
4) Data analysis: All values were expressed as average values. Statistical analysis was evaluated using Graphpad Prism 6 one-way analysis of variance and Tukey's multiple comparison test, and a p value of less than 0.05 was considered statistically significant.

Row | Compound | IC50 (Human-SGLT1) [nM] | IC50 (Human-SGLT2) [nM] | clearance ([1]; rat, plasma) [mL/min/kg] | half-life ([1]; rat, plasma) [h] | Vd ([1]; rat, plasma) [L/kg] | further results
1 | CS[C@H]1O[C@@H](c2ccc(F)c(Cc3ccc(OC4CCN(C(=O)C[C@H](N)Cc5cc(F)c(F)cc5F)CC4)cc3)c2)[C@H](O)[C@@H](O)[C@@H]1O [WXD006] | 35 | 1.4 | – | – | – | –
2 | CS[C@H]1O[C@@H](c2cccc(Cc3ccc(OC4CCN(C(=O)C[C@H](N)Cc5cc(F)c(F)cc5F)CC4)cc3)c2)[C@H](O)[C@@H](O)[C@@H]1O [WXD007] | 69 | 5.8 | – | – | – | –
3 | CS[C@H]1O[C@@H](c2ccc(C)c(Cc3ccc(CCCC(=O)NC(C)(C)C(=O)NCCN(C)C)cc3)c2)[C@H](O)[C@@H](O)[C@@H]1O [LX2761, reference compound] | 1.1 | 1.1 | 37.6 | 1.9 | 1.4 | –
4 | CS[C@H]1O[C@@H](c2ccc(C)c(Cc3ccc(OC4CCN(C(=O)C[C@H](N)Cc5cc(F)c(F)cc5F)CC4)cc3)c2)[C@H](O)[C@@H](O)[C@@H]1O [WXD004] | 0.8 | 0.8 | – | – | – | –
5 | CCc1ccc([C@@H]2O[C@H](SC)[C@@H](O)[C@H](O)[C@H]2O)cc1Cc1ccc(OC2CCN(C(=O)C[C@@H](Cc3cc(F)c(F)cc3F)NC)CC2)cc1 [WXD005] | 3.5 | 1.4 | – | – | – | –
6 | CCc1ccc([C@@H]2O[C@H](SC)[C@@H](O)[C@H](O)[C@H]2O)cc1Cc1ccc(OC2CCN(C(=O)C[C@H](N)Cc3cc(F)c(F)cc3F)CC2)cc1 [WXD003] | 0.7 | 0.6 | 32.5 | 2.3 | 1.5 | Oral DNAUC (AUCPO/Dose) ([1]; 10 mg/kg orally): 2 nM · h/mpk; bioavailability ([1]; rat, plasma, oral, 10 mg/kg orally vs 1 mg/kg intravenously, read-out: F % (oral bioavailability)): 0.2%; Cmax ([1]; rat, po, 10 mg/kg orally, plasma): 16.5 nM; OGTT blood glucose level AUC0-2 hours (SD rats): 624.2**** mmol/L × min; Glycosylated hemoglobin after 6 hours of fasting (C57BL/6J male mice [2]; after 4 weeks of administration, 3 mg/kg orally once a day, HFHS + Vehicle 4.9): 4.5*** %; Blood glucose after 6 hours of fasting (C57BL/6J male mice [2]; after 4 weeks of administration, 3 mg/kg orally once a day, HFHS + Vehicle 13.7): 10.3*** mmol/L; weight gain of animals (C57BL/6J male mice [2]; after 4 weeks of administration, FIG. 3): can effectively control the weight gain of animals; Glycosylated hemoglobin after 6 hours of fasting (C57BL/6J male mice [2]; after 7 weeks of administration, 6 mg/kg (week 4 to 7) orally once a day, HFHS + Vehicle 5.2): 4.4**** %; Blood glucose after 6 hours of fasting (C57BL/6J male mice [2]; after 7 weeks of administration, 6 mg/kg (week 4 to 7) orally once a day, HFHS + Vehicle 15.3): 9.6**** mmol/L; weight gain of animals (C57BL/6J male mice [2]; after 7 weeks of administration, FIG. 6): can effectively control the weight gain of animals; Blood glucose after 6 hours of fasting (C57BL/6J male mice [3]; 0.3 mg/kg orally once a day): 9.7 mmol/L; Blood glucose 1 hour after meal (C57BL/6J male mice [3]; 0.3 mg/kg orally once a day): 10.5 mmol/L; Blood glucose after 6 hours of fasting (C57BL/6J male mice [3]; 1 mg/kg orally once a day): 9.6 mmol/L; Blood glucose 1 hour after meal (C57BL/6J male mice [3]; 1 mg/kg orally once a day): 10.2 mmol/L; Blood glucose after 6 hours of fasting (C57BL/6J male mice [3]; 3 mg/kg orally once a day): 9.7 mmol/L; Blood glucose 1 hour after meal (C57BL/6J male mice [3]; 3 mg/kg orally once a day): 9.6* mmol/L; animal weight (C57BL/6J male mice [3]; after 3 weeks of administration, 0.3, 1, 3 mg/kg, FIG. 7 and FIG. 8): can significantly reduce animal weight in a dose-dependent manner
